Test results from the METLIN SMRT retention time set (Domingo-Almenara et al. 2019).

Experiment: gradient 5% acetonitrile 3 min, to 50% in 2 min, to 85% in 15 min, held 3 min, 100 µL/min
Details: column: Zorbax Extend-C18 2.1 x 50 mm; eluents: water / acetonitrile, 0.1% formic acid
In short: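 Data were gathered over 3 months by HPLC coupled to a quadrupole time-of-flight mass spectrometer, operated in positive and negative ionization mode. Mixtures of ~100 pure standards ran on a Zorbax Extend-C18 column (2.1 × 50 mm, 1.8 μm) at 100 μL/min, with water and acetonitrile each containing 0.1% formic acid and dead and dwell volumes of 40 μL and 900 μL. Retention time was read from adduct peaks picked by computer and checked manually.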

RP-LC retention time | SMILES
897 s | Cc1nc(-c2ccc3c(c2)n(CC(=O)NC2CCC(C)CC2)c(=O)n3C(C)C)no1 (configuration not stated)
828 s | COc1ccccc1-c1cc(C(N)=O)c2cccc(C)c2n1
1150 s | COc1ccc(-c2nnc(-c3ccc(C)c(S(=O)(=O)N4CCC(C)CC4)c3)o2)cc1OC
747 s | CCc1ccccc1NC(=O)COc1nc(C)nc2ccccc12
649 s | CCOc1ccc(NC(=O)COc2cc(C)nc(N3CCCC3)n2)cc1
1040 s | Cc1cccc(-c2nnc(-c3ccc(Cl)c(S(=O)(=O)N(C)C)c3)o2)c1
1040 s | CCCCn1cc(S(=O)(=O)Nc2ccc(CC)cc2)c2cccnc21
821 s | CC1=C(c2ccc(C)cc2)S(=O)(=O)N=C1N1CCCN(C(=O)c2ccsc2)CC1
615 s | O=C(Nc1cccc2ccc(-n3ccnc3)nc12)c1ccsc1
1020 s | CCOc1ccccc1NC(=O)Cn1nc2cc(-c3ccc(OC)cc3)nc(C)n2c1=O
660 s | CCCCS(=O)(=O)Nc1ccc2c(c1)nc(-c1ccc(C(=O)NCCC)cc1)n2C
646 s | COc1ccc(-c2cc3c(=O)n(Cc4noc(CN5CCCC5)n4)ccn3n2)cc1
1120 s | O=C1COc2ccccc2N1Cc1nc(-c2cccc(Br)c2)no1
977 s | Cc1nc(-c2cccc(-c3noc(CNS(=O)(=O)c4ccccc4)n3)c2)cs1
1040 s | O=C(Nc1ccccc1SCc1nnc(-c2ccccc2)o1)c1ccc(Br)o1
765 s | COc1ccc(OC)c(CNC(=O)Cn2cc(-c3nnco3)c3ccccc32)c1
600 s | CC(C)n1cnc2cc(CNC(=O)Cc3cccs3)ccc21
900 s | COc1ccc(-c2noc(Cn3nc(-c4ccccc4)ccc3=O)n2)cc1OC
665 s | Cc1ccc(CC(=O)NC(C)C(=O)Nc2nc3ccccc3[nH]2)cc1 (configuration not stated)
807 s | Cc1cc2c(c(=O)n(-c3ccc(F)cc3)c(=O)n2CC(=O)Nc2ccc3c(c2)OCO3)n1C
1110 s | COc1cc(NC(=O)Cn2nc(N3CCC(C)CC3)c3ccccc3c2=O)cc(OC)c1
868 s | COC(=O)c1ccc(NC(=O)NCc2noc3ccc(C)cc23)cc1
987 s | Cc1ccc2[nH]cc(CCNC(=O)C3CCN(c4ccc(Cl)cc4)C3=O)c2c1 (configuration not stated)
750 s | COc1ccc(CN2CN=C(Nc3nc(C)c4cccc(OC)c4n3)NC2)cc1

RP-LC retention time | SMILES
774 s | Cc1ccc(NC(=O)Cn2c(-c3cnccn3)nc(C)c(C)c2=O)cc1C
822 s | COc1ccc(C)cc1NC(=O)N1CCc2cn(C)c3cccc(c23)C1
687 s | CCc1nc(-c2cc3ccccc3nc2N2CCN(c3ccc(OC)cc3)CC2)no1
756 s | COCC(=O)Nc1ccc2nc(-c3ccc(Cl)cc3)cc(OCC(=O)OC)c2c1
678 s | O=C(NCc1ccccc1Cl)C(=O)NCC(c1ccc2c(c1)OCO2)N1CCOCC1 (configuration not stated)
752 s | COc1ccc(C(=O)Nc2ccc3c(c2)Sc2ncccc2C(=O)N3C)cc1
846 s | Cc1nc2nc(-c3ccccc3)nn2c(C)c1CC(=O)N1CCC(C)CC1
964 s | Cc1noc(-c2cccc(OC3CN(S(=O)(=O)c4c(C)noc4C)C3)c2)n1
921 s | Clc1cccc(-c2nc(-c3ccc4nncn4c3)no2)c1
982 s | CCc1ccc(NC(=O)C2(C)Oc3cccnc3N(CC)C2=O)cc1 (configuration not stated)
1100 s | O=C(c1ccc(Br)o1)N1CCc2nc(-c3ccc(Cl)cc3)ncc2C1
768 s | CC(CCNc1ccc(-c2nc(-c3ccc(F)cc3)no2)cn1)N1CCCCCC1 (configuration not stated)
784 s | O=C(Nc1cccc(F)c1)N1CCN(Cc2nc3cc(Cl)ccc3o2)CC1
952 s | CCOc1ccccc1-c1noc(-c2cc(-c3ccccc3)n[nH]2)n1
672 s | CN(C)c1cnc(-n2cc(NC(=O)c3cccc(N(C)C)c3)cn2)nc1
760 s | Cc1ccc(Nc2nc(C)cc(N3CCN(S(=O)(=O)c4ccc5c(c4)OCCO5)CC3)n2)cc1
564 s | CCn1cnc2c1CN(C(=O)c1ccc3c(c1)OCO3)CC2
1170 s | O=S(=O)(c1ccccc1)N1CCc2nc(-c3ccc(Cl)cc3)ncc2C1
970 s | COC(=O)c1sccc1NC(=O)N1CCCn2nc(-c3ccc(OC)cc3)cc2C1
731 s | CC(=O)N1CCc2ccccc2C1C(=O)NCc1ccc2c(c1)OCO2 (configuration not stated)
888 s | Cc1cc(C)n(Cc2nc(-c3ccc(NC(=O)c4ccc5c(c4)OCO5)cc3)oc2C)n1
1000 s | CCn1c(=O)oc2cc(-c3noc(-c4cccc5[nH]ccc45)n3)ccc21
1100 s | COc1ccc(C2Cn3nnc(-c4nc(-c5cccc(F)c5)no4)c3CO2)cc1 (configuration not stated)
807 s | Cc1noc(C)c1-c1ccc(S(=O)(=O)N2CCOCC2)cc1

More lines, now with the values behind:

SMILES | RP-LC retention time
O=C(c1ccoc1)N1CCC(Cc2noc(C3CC3)n2)C1 (configuration not stated) | 695 s
COc1ccc2c(c1)C1(CCN(C(=O)Nc3cccc(C)c3)C1)C(=O)N2 (configuration not stated) | 730 s
CC(C)(C)OC(=O)COC(=O)c1cn(-c2cccc(F)c2)c(=O)c2ccccc12 | 1160 s
Cc1oc2ncn(CC(C)C)c(=O)c2c1C(=O)N1CCN(c2ccccn2)CC1 | 568 s
Cc1noc(C)c1C1CCCN1C(=O)c1cccc(C#N)c1 (configuration not stated) | 767 s
O=C(COc1ccccc1)Nc1ccccc1-c1nc2ccccc2s1 | 1320 s
CCc1ccccc1N(C)C(=O)Cn1ccc2c(=O)n(C)c(=O)n(C)c21 | 735 s
Cc1ccccc1CC(=O)NC1CCN(c2ccccc2)C1=O (configuration not stated) | 811 s
COC(=O)[C@H](CC1C=NC=N1)NCC12CC3CC(CC(C3)C1)C2 (some centres not stated) | 607 s
COC1CCC12CCN(Cc1ccc(C#N)cc1)CC2 (configuration not stated) | 597 s
CN(CC1(C)CCOCC1)C(=O)c1ccccc1Br | 806 s
CCCCn1cnc2c(-c3ccccc3)cn(CC(=O)NC(C)C)c2c1=O | 905 s
CCCC(=O)Nc1sccc1C(N)=O | 625 s
COc1ccc(C)cc1NC1=NS(=O)(=O)c2ccccc21 | 852 s
CSc1cccc(NC(=O)Cn2nc3n(c2=O)CCCC3)c1 | 669 s
O=C(NCC(O)(c1ccccc1)C(F)(F)F)C(=O)Nc1ccon1 (configuration not stated) | 738 s
CN1C(=O)c2cc(C(=O)NCCc3ccccc3)nn2CC1(C)C(=O)NC1CCCCC1 (configuration not stated) | 812 s
O=C(NC1CC1)c1nc(C(=O)N2CCN(c3ccccc3F)CC2)cs1 | 818 s
CCOC(=O)C1CCN(C(=O)c2sc(-c3cn(C(C)C)c4ncccc34)nc2C)CC1 | 961 s
CCC1CN(C(=O)N2CCC(C(=O)NCCCOC)CC2)c2cc(C)ccc2O1 (configuration not stated) | 757 s
O=C(NCCCN1CCCCC1)C1CCN(c2nc3cccnc3s2)CC1 | 577 s
CCOC(=O)c1[nH]c2ccc(F)cc2c1NC(=O)CN(CC)CC | 605 s

SMILES | RP-LC retention time
O=C(NCCCN1CCCCCC1)C1CCCN(c2nn3c(=O)c4c(nc3s2)CCCC4)C1 (configuration not stated) | 592 s
Cc1ccc(CNC(=O)C2CCN(c3nc(C4CCC4)nc4csc(C)c34)CC2)cc1C | 808 s
O=C(NCC(=O)N1CCCc2ccccc21)c1ccccc1F | 831 s
CC(C)NC(=O)N1CCCC(c2cccc(C(=O)NCc3ccccc3C(F)(F)F)c2)C1 (configuration not stated) | 966 s
Cc1ccc(C2Cn3cnc(C(=O)N4CCC(C(=O)NCC5CCCCC5)CC4)c3CO2)cc1 (configuration not stated) | 885 s
CCOC(=O)c1[nH]c2ccc(OC)cc2c1NC(=O)CN(C)C | 575 s
Cc1nnc(C2CC3(CCN(CCO)CC3)CN2CCc2ccccc2)o1 (configuration not stated) | 574 s
CN(CCCC(=O)O)S(=O)(=O)c1ccc(N)cc1 | 598 s
CCn1c(=O)c(N2CCN(C(=O)Nc3cccc(Br)c3)CC2)nc2cccnc21 | 1030 s
CCOC(=O)C1CCN(C(=O)c2cn(-c3cc(N4CCSCC4)ncn3)cn2)CC1 | 791 s
Cc1ccc(C(=O)N2CCC(N3C(=O)C(O)C34CCCCC4)CC2)s1 (configuration not stated) | 678 s
O=C(NCC1(c2cccs2)CC1)c1ccsc1 | 791 s
CCCNc1cc(N2CCC(CCC(=O)NCc3cccc(F)c3)CC2)ncn1 | 696 s
O=C(c1cccnc1)C1Cc2ccccc2C1=O (configuration not stated) | 884 s
CN1C(=O)C(CC(=O)N2CCCCC2)=C2CCCCC21 (configuration not stated) | 677 s
O=S(=O)(Nc1ccc(F)cc1)c1cccnc1Nc1ccc(Cl)cc1 | 1120 s
CCOC(=O)c1cc(S(=O)(=O)N2CCCC2C(=O)NC2CCCCC2)cn1C (configuration not stated) | 875 s
COc1ccccc1S(=O)(=O)NCCc1ccsc1 | 824 s
Cc1nn(-c2ccccc2)c2c1N(CC(=O)N1CCN(c3ccc(F)cc3)CC1)C(=O)CS2 | 915 s
O=C1CC2(CCCC2)CC(=O)N1CCNCC1COc2ccccc2O1 (configuration not stated) | 747 s
CC(Nc1nc(N2CCCC2)nc2ccccc12)c1ccccc1 (configuration not stated) | 781 s
CC(C)C(=O)N1CCc2ccccc2C1C(=O)N1CCN(c2ccc(F)cc2)CC1 (configuration not stated) | 930 s
